The values that follow come from US20250281502A1, “NEW DRUG APPLICATION” (Centre National de la Recherche Scientifique, priority 2021, published 2025).

Where only a bound is given, the exact number is not on record here.

Data set [1] deals with Human Myeloma Cell Lines (HMCLs). The data set is described as follows: CellTiter-Glo cell viability, IC50 in human myeloma cell lines. It counts as cell-based. The procedure:
JJN3, OPM2, RPM18266, LP1, AMO1, SKMM2 human myeloma cell lines (HMCLs) were obtained from ATCC (Molshein, France) and were cultured in RPMI 1640 medium, supplemented with 10% fetal calf serum (Biochrom, Berlin, Germany) and 2 mM L-Glutamine. The interleukin-6-dependent cell lines XG1, XG2, XG6, XG7, XG12, XG19, XG20, XG21 were obtained as previously described and maintained in the presence of 2 ng/mL recombinant IL-6 (R&D Systems, Oxon, UK), 10% fetal calf serum and 2 mM L-Glutamine.
Cells in culture were stained using trypan blue solution (Sigma-Aldrich, St. Louis MO, USA) and viable cells were counted under a light microscope. The CellTiter-Glo Luminescent Viability assay (Promega, Leiden, The Netherlands) was used to measure the effect on cell viability according to manufacturer's instructions, and the 50% inhibition (IC50) was determined using GraphPad Prism software (http://www.graphpad.com/scientific-software/prism/).
On the technique in general: ATP-based viability assays read luminescence as a measure of living cells.

The subject of a further data set is XG2 cell line. Nature of the data set: Melphalan IC50 with or without Pyridostatin, XG2 cell line. The note with it: Homo sapiens. It counts as cell-based.
In the next data set the test system is MM cell. Nature of the data set: MM cell growth, apoptosis and cell cycle after Pyridostatin. In kind it is cell-based, human.
The test system of data set [2] is normal cells from the bone marrow microenvironment. The data set is described as follows: Primary patient samples, co-cultured normal bone marrow cells by flow cytometry. In kind it is cell-based, human. Conditions: five MM patients (FIG. 6C). The procedure: FIG. 6A represents the IC50 of Pyridostatin (nM) for […]: a is OPM2; b is XG12; c is XG21; d is XG19; e is RPM18266; f is LP1; g is XG6; h is JJN3; I is XG2; j is XG7; k: L363; I is XG1; m is AMO1; n is SKMM2 and o is XG20. IC50 of Pyridostatin +/−SD are representative of 3 independent experiments. NA: not reached. FIG. 6B represents the Pyridostatin toxicity on bone marrow cells (x-axis is the Pyridostatin concentration in μM; y-axis is the cell count in percentage of the control (0 μM of Pyridostatin)). The toxicity of Pyridostatin was assessed on primary bone marrow cells from one MM patient (dark grey bars), co-cultured with normal bone marrow microenvironment (light grey). The toxicity on MM cells and normal bone marrow cells was assessed by flow cytometry using CD138 and CD28 marker cells. FIG. 6C represents the Pyridostatin toxicity on bone marrow cells (x-axis is the Pyridostatin concentration in μM; y-axis is the cell count in percentage of the control (0 μM of Pyridostatin)). The toxicity of Pyridostatin was assessed on primary bone marrow cells from five MM patient (black bars) and co-cultured with normal bone marrow microenvironment (grey bars). The toxicity on MM cells and normal bone marrow cells was assessed by flow cytometry using CD138 and CD28 marker cells. Data are mean values of five independent experiments. […]
On the technique in general: A flow cytometer gives signals particle by particle.

In a further data set the test system is XG2-MeIR cell line. Nature of the data set: Melphalan response with or without Pyridostatin, Melphalan-resistant XG2 cell line. Conditions: 4 days (FIGS. 14 and 15). It counts as cell-based, human.
In another data set the test system is XG7-RH. Nature of the data set: Western blot of DNA damage response in XG7 with inducible RNase H. In kind it is cell-based, human. The note with it: XG7-RH with doxycycline, 5 h or 24 h (FIG. 7). The method, then:
FIGS. 7A and 7B represent Western blots. Doxy stands for doxycycline. PDS stands for Pyridostatin (concentration in μM). XG7 cell line was transduced with a doxycycline-inducible lentivirus containing RNase H gene (XG7-RH). XG7-RH was cultured with or without doxycycline in absence or presence of Pyridostatin during 5 h or 24 h. Western blot membranes were stained with anti-Phospho-Chk2, anti-Phospho-P53, anti-P53, anti-PARP, anti-myc (FIG. 7A) and anti-p21, anti-p16, anti-p27 and anti-gH2AX (FIG. 7B). Tubulin protein level was used as control.
Western Blot Analysis Western blot analysis was performed as previously described (Viziteu, E. et al., Leukemia 31, 2104-2113, 2017). Tubulin was used as loading control. All antibodies used were purchased from Cell Signaling, except for p21, p27, Myc, and phospho-Histone H2A.X. Myc antibody was obtained from Santa Cruz biotechnology (Texas, USA), phospho-Histone H2A.X antibody from Merck Millipore (Sigma-Aldrich), and p27 antibody was from Sigma-Aldrich.

Data set [3] deals with primary MM cells from patients. Nature of the data set: Primary patient samples, viable CD138+ MM cells by flow cytometry. In kind it is cell-based, human. Conditions: co-cultured with bone marrow microenvironment (FIG. 6B, 6C).

Take `CCNC(=O)C[C@@H]1N=C(c2ccc(Cl)cc2)c2cc(OC)ccc2-n2c(C)nnc21` [I-BET-762, (4S)-6-(4-Chlorophenyl)-N-ethyl-8-methoxy-1-methyl-4H-[1,2,4]triazolo[4,3-a][1,4]benzodiazepine-4-acetamide]: in data set [1], the “sensitivity of HMCLs with high TRC score compared to low TRC score” value was “significantly more sensitive”.

On to `N[C@@H](Cc1ccc(N(CCCl)CCCl)cc1)C(=O)O` [Melphalan], for which the IC50 – broadly, the concentration at which inhibition is half-maximal – was 1490 nM in the data set on XG2 cell line (96 h, black bars, Melphalan and Pyridostatin at 1.25 μM for 4 days, first value printed for XG2 (FIG. 15)); 632 nM with XG2 cell line (96 h, black bars, Melphalan and Pyridostatin at 1.25 μM for 4 days, second value printed for XG2 (FIG. 15)); 632 nM with XG2 cell line (grey bars, Melphalan alone, first value printed for XG2 (FIG. 15)); 350 nM in the data set on XG2 cell line (grey bars, Melphalan alone, second value printed for XG2 (FIG. 15)).

Consider `NCCOc1cc(C(=O)Nc2cc(OCCN)c3ccccc3n2)nc(C(=O)Nc2cc(OCCN)c3ccccc3n2)c1` [Pyridostatin], for which, in the data set with MM cell, the MM cell growth entry is recorded as “inhibits MM cell growth”, the apoptosis entry is on record as “induces apoptosis” and the cell cycle entry is recorded as “significant accumulation in G2/M phase”. Moreover, in data set [2], the “toxicity on co-cultured normal cells” value is recorded as “without any significant toxicity”. The “re-sensitization of resistant cells to Melphalan” value with XG2-MeIR cell line is “re-sensitize the resistant cells (XG2-MeIR) to Melphalan”. The “DNA damage response after PDS treatment on inducible RNase H expression (phosphorylation of Chk2, p53; p21 and p16 expression)” value in the data set with XG7-RH is recorded as “significant reduction of DNA damage response”. Further, the “resistance to PDS” value in data set [1] (5 cell lines (FIG. 6A)) was “higher resistance”. In addition, the IC50 in data set [1] (Homo sapiens, 10 HMCLs (FIG. 6A), read-out: IC50 of Pyridostatin) was at most 2000 nM. For the same compound, in data set [3], the “toxicity on primary MM cells” value is reported as “toxicity”.

As for `COc1cc(OC)c2c(=O)[nH]c(-c3cc(C)c(OCCO)c(C)c3)nc2c1` [RVX-208, 2-[4-(2-hydroxyethoxy)-3,5-dimethylphenyl]-5,7-dimethoxy-4(3H)-quinazolinone], the “sensitivity of HMCLs with high TRC score compared to low TRC score” value in data set [1] was “significantly more sensitive”.
